Source: US10131652B2, “Pyrimidinyloxy benzene derivatives as herbicides” (E. I. DU PONT DE NEMOURS AND COMPANY, priority 2014, dated 2018)

Key:
Type in all cases: in vivo
[1] = test system: Italian ryegrass (Lolium multiflorum); assay: Test D pre-/postemergence plant response
Procedure, shortened: (§1)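 Preemergence: seeds in loam/sand blend treated with test chemicals in non-phytotoxic solvent with surfactant; postemergence: plants at 2–18 cm (1- to 4-leaf stage) in peat-based medium sprayed likewise. Greenhouse 13 to 15 days, then visual rating vs controls, 0 (no effect) to 100 (complete control).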

[2] = test system: galium (catchweed bedstraw, Galium aparine); assay: Test D pre-/postemergence plant response
Procedure, shortened: as §1

[3] = test system: corn (Zea mays); assay: Test D pre-/postemergence plant response
Procedure, shortened: as §1

[4] = test system: velvetleaf (Abutilon theophrasti); assay: Test D pre-/postemergence plant response
Procedure, shortened: as §1

[5] = test system: oilseed rape (Brassica napus); assay: Test D pre-/postemergence plant response
Procedure, shortened: as §1

[6] = test system: winter wheat (Triticum aestivum); assay: Test D pre-/postemergence plant response
Procedure, shortened: as §1

[7] = test system: lambsquarters (Chenopodium album); assay: Test D pre-/postemergence plant response
Procedure, shortened: as §1

[8] = test system: ragweed (common ragweed, Ambrosia elatior); assay: Test B pre-/postemergence plant response
Procedure, shortened: (§2)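 Greenhouse pots, loam/sand soil; compound formulated with surfactant in non-phytotoxic solvent. Preemergence soil spray and postemergence spray at 1–2 leaf stage run simultaneously. Visual injury, 0–100, about 10 days post-treatment.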

[9] = test system: Italian ryegrass (Lolium multiflorum); assay: Test B pre-/postemergence plant response
Procedure, shortened: as §2

[10] = test system: kochia (Kochia scoparia); assay: Test B pre-/postemergence plant response
Procedure, shortened: as §2

[11] = test system: small-flower umbrella sedge (Cyperus difformis); assay: Test C flooded paddy test plant response; conditions: Flood, 250 g ai/ha; scale of 0 to 100 where 0 is no effect and 100 is complete control; 13 to 15 days
Procedure, shortened: (§3)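 Plants grown to 2-leaf stage, flooded 3 cm above soil; compounds applied directly into paddy water, depth kept throughout. Visual rating versus controls after 13 to 15 days in greenhouse, 0 (no effect) to 100 (complete control).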

[12] = test system: ducksalad (Heteranthera limosa); assay: Test C flooded paddy test plant response; conditions: Flood, 250 g ai/ha; scale of 0 to 100 where 0 is no effect and 100 is complete control; 13 to 15 days
Procedure, shortened: as §3

[13] = test system: rice (Oryza sativa); assay: Test C flooded paddy test plant response; conditions: Flood, 250 g ai/ha; scale of 0 to 100 where 0 is no effect and 100 is complete control; 13 to 15 days
Procedure, shortened: as §3

[14] = test system: barnyardgrass (Echinochloa crus-galli); assay: Test C flooded paddy test plant response; conditions: Flood, 250 g ai/ha; scale of 0 to 100 where 0 is no effect and 100 is complete control; 13 to 15 days
Procedure, shortened: as §3

[15] = Postemergence, 16 g ai/ha, scale 0 to 100 (0 no effect, 100 complete control)
[16] = Postemergence, 31 g ai/ha, scale 0 to 100 (0 no effect, 100 complete control)
[17] = Postemergence, 62 g ai/ha, scale 0 to 100, 0 no effect, 100 complete control
[18] = Postemergence, 125 g ai/ha, scale 0 to 100, 0 no effect, 100 complete control
[19] = Preemergence, 16 g ai/ha, scale 0 to 100 (0 no effect, 100 complete control)
[20] = Preemergence, 31 g ai/ha, scale 0 to 100 (0 no effect, 100 complete control)
[21] = Preemergence, 62 g ai/ha, scale 0 to 100 (0 no effect, 100 complete control)
[22] = Postemergence, 1000 g ai/ha, 0 to 100 scale (0 no effect, 100 complete control)
[23] = Preemergence, 1000 g ai/ha, 0 to 100 scale (0 no effect, 100 complete control)
[24] = 125 g ai/ha, postemergence, 0 to 100 scale, 0 no effect, 100 complete control
[25] = Postemergence, 500 g ai/ha, 0 to 100 scale (0 no effect, 100 complete control)
[26] = Preemergence, 125 g ai/ha, 0 to 100 scale where 0 is no effect and 100 is complete control
[27] = Preemergence, 500 g ai/ha, 0 to 100 scale where 0 is no effect and 100 is complete control

Structure (SMILES): FCc1cc(-c2c(F)cccc2Oc2ncc(Cl)cn2)no1 [Compound 57]
- Ryegrass, Italian plant response rating [1, 15]: 0
- Ryegrass, Italian plant response rating [1, 16]: 0
- Plant response rating, Ryegrass, Italian [1, 17]: 0
- Plant response rating, Ryegrass, Italian [1, 18]: 0
- Plant response rating (scale 0 to 100), Ryegrass, Italian ([1]; Preemergence, 125 g ai/ha): 50
- Plant response rating, Ryegrass, Italian [1, 19]: 0
- Plant response rating, Ryegrass, Italian [1, 20]: 0
- Plant response rating, Ryegrass, Italian [1, 21]: 5
- Galium plant response rating [2, 15]: 40
- Galium plant response rating [2, 16]: 50
- Plant response rating, Galium [2, 17]: 65
- Plant response rating, Galium [2, 18]: 95
- Plant response rating (scale 0 to 100), Galium ([2]; Preemergence, 125 g ai/ha): 90
- Plant response rating, Galium [2, 19]: 80
- Plant response rating, Galium [2, 20]: 70
- Plant response rating, Galium [2, 21]: 90
- Corn plant response rating [3, 15]: 0
- Corn plant response rating [3, 16]: 5
- Plant response rating, Corn [3, 17]: 5
- Plant response rating, Corn [3, 18]: 10
- Plant response rating (scale 0 to 100), Corn ([3]; Preemergence, 125 g ai/ha): 30
- Plant response rating, Corn [3, 19]: 0
- Plant response rating, Corn [3, 20]: 0
- Plant response rating, Corn [3, 21]: 5
- Velvetleaf plant response rating [4, 15]: 10
- Velvetleaf plant response rating [4, 16]: 50
- Plant response rating, Velvetleaf [4, 17]: 70
- Plant response rating, Velvetleaf [4, 18]: 80
- Plant response rating (scale 0 to 100), Velvetleaf ([4]; Preemergence, 125 g ai/ha): 100
- Plant response rating, Velvetleaf [4, 19]: 100
- Plant response rating, Velvetleaf [4, 20]: 100
- Plant response rating, Velvetleaf [4, 21]: 100
- Oilseed Rape plant response rating [5, 15]: 30
- Oilseed Rape plant response rating [5, 16]: 55
- Plant response rating, Oilseed Rape [5, 17]: 75
- Plant response rating, Oilseed Rape [5, 18]: 90
- Plant response rating (scale 0 to 100), Oilseed Rape ([5]; Preemergence, 125 g ai/ha): 100
- Plant response rating, Oilseed Rape [5, 19]: 100
- Plant response rating, Oilseed Rape [5, 20]: 100
- Plant response rating, Oilseed Rape [5, 21]: 100
- Wheat plant response rating [6, 15]: 0
- Wheat plant response rating [6, 16]: 5
- Plant response rating, Wheat [6, 17]: 15
- Plant response rating, Wheat [6, 18]: 20
- Plant response rating (scale 0 to 100), Wheat ([6]; Preemergence, 125 g ai/ha): 5
- Plant response rating, Wheat [6, 19]: 0
- Plant response rating, Wheat [6, 20]: 0
- Plant response rating, Wheat [6, 21]: 0
- Lambsquarters plant response rating [7, 15]: 60
- Lambsquarters plant response rating [7, 16]: 40
- Plant response rating, Lambsquarters [7, 17]: 70
- Plant response rating, Lambsquarters [7, 18]: 80
- Plant response rating (scale 0 to 100), Lambsquarters ([7]; Preemergence, 125 g ai/ha): 100
- Plant response rating, Lambsquarters [7, 19]: 80
- Plant response rating, Lambsquarters [7, 20]: 100
- Plant response rating, Lambsquarters [7, 21]: 100
- Plant response rating, Ragweed [8, 22]: 100
- Plant response rating, Ragweed [8, 23]: 90
- Plant response rating, Ryegrass, Italian [9, 22]: 80
- Plant response rating, Ryegrass, Italian [9, 23]: 80
- Plant response rating, Kochia [10, 22]: 90
- Plant response rating, Kochia [10, 23]: 100
- Sedge, Umbrella plant response rating [11]: 75
- Ducksalad plant response rating [12]: 90
- Rice plant response rating [13]: 0
- Barnyardgrass plant response rating [14]: 0

Structure (SMILES): Cc1cc(-c2ccccc2Oc2ncc(Cl)cn2)on1 [Compound 58]
- Ryegrass, Italian plant response rating [1, 15]: 0
- Ryegrass, Italian plant response rating [1, 16]: 0
- Plant response rating, Ryegrass, Italian [1, 17]: 0
- Plant response rating, Ryegrass, Italian [1, 18]: 0
- Plant response rating (scale 0 to 100), Ryegrass, Italian ([1]; Preemergence, 125 g ai/ha): 5
- Plant response rating, Ryegrass, Italian [1, 19]: 0
- Plant response rating, Ryegrass, Italian [1, 20]: 0
- Plant response rating, Ryegrass, Italian [1, 21]: 0
- Galium plant response rating [2, 15]: 40
- Galium plant response rating [2, 16]: 45
- Plant response rating, Galium [2, 17]: 60
- Plant response rating, Galium [2, 18]: 55
- Plant response rating (scale 0 to 100), Galium ([2]; Preemergence, 125 g ai/ha): 100
- Plant response rating, Galium [2, 19]: 0
- Plant response rating, Galium [2, 20]: 98
- Plant response rating, Galium [2, 21]: 100
- Corn plant response rating [3, 15]: 0
- Corn plant response rating [3, 16]: 0
- Plant response rating, Corn [3, 17]: 5
- Plant response rating, Corn [3, 18]: 5
- Plant response rating (scale 0 to 100), Corn ([3]; Preemergence, 125 g ai/ha): 20
- Plant response rating, Corn [3, 19]: 5
- Plant response rating, Corn [3, 20]: 20
- Plant response rating, Corn [3, 21]: 10
- Velvetleaf plant response rating [4, 15]: 60
- Velvetleaf plant response rating [4, 16]: 35
- Plant response rating, Velvetleaf [4, 17]: 60
- Plant response rating, Velvetleaf [4, 18]: 85
- Plant response rating (scale 0 to 100), Velvetleaf ([4]; Preemergence, 125 g ai/ha): 100
- Plant response rating, Velvetleaf [4, 19]: 85
- Plant response rating, Velvetleaf [4, 20]: 100
- Plant response rating, Velvetleaf [4, 21]: 100
- Oilseed Rape plant response rating [5, 15]: 5
- Oilseed Rape plant response rating [5, 16]: 10
- Plant response rating, Oilseed Rape [5, 17]: 60
- Plant response rating, Oilseed Rape [5, 18]: 75
- Plant response rating (scale 0 to 100), Oilseed Rape ([5]; Preemergence, 125 g ai/ha): 100
- Plant response rating, Oilseed Rape [5, 19]: 60
- Plant response rating, Oilseed Rape [5, 20]: 98
- Plant response rating, Oilseed Rape [5, 21]: 100
- Wheat plant response rating [6, 15]: 0
- Wheat plant response rating [6, 16]: 5
- Plant response rating, Wheat [6, 17]: 10
- Plant response rating, Wheat [6, 18]: 10
- Plant response rating (scale 0 to 100), Wheat ([6]; Preemergence, 125 g ai/ha): 0
- Plant response rating, Wheat [6, 19]: 0
- Plant response rating, Wheat [6, 20]: 0
- Plant response rating, Wheat [6, 21]: 0
- Lambsquarters plant response rating [7, 15]: 10
- Lambsquarters plant response rating [7, 16]: 75
- Plant response rating, Lambsquarters [7, 17]: 60
- Plant response rating, Lambsquarters [7, 18]: 90
- Plant response rating (scale 0 to 100), Lambsquarters ([7]; Preemergence, 125 g ai/ha): 100
- Plant response rating, Lambsquarters [7, 19]: 25
- Plant response rating, Lambsquarters [7, 20]: 100
- Plant response rating, Lambsquarters [7, 21]: 100
- Plant response rating, Ragweed [8, 24]: 100
- Plant response rating, Ragweed [8, 25]: 100
- Plant response rating, Ragweed [8, 26]: 70
- Plant response rating, Ragweed [8, 27]: 80
- Plant response rating, Ryegrass, Italian [9, 24]: 20
- Plant response rating, Ryegrass, Italian [9, 25]: 80
- Plant response rating, Ryegrass, Italian [9, 26]: 0
- Plant response rating, Ryegrass, Italian [9, 27]: 20
- Plant response rating, Kochia [10, 24]: 100
- Plant response rating, Kochia [10, 25]: 100
- Plant response rating, Kochia [10, 26]: 80
- Plant response rating, Kochia [10, 27]: 100
- Sedge, Umbrella plant response rating [11]: 40
- Ducksalad plant response rating [12]: 80
- Rice plant response rating [13]: 0
- Barnyardgrass plant response rating [14]: 0
